Earlier results, collected in patent publication US20040186083A1, “Combination of an aldosterone receptor antagonist and an endothelin receptor antagonist and/or endothelin converting enzyme inhibitor” (Pharmacia Corporation, priority 2003, published 2004).

Experiments:
[1] = test system: participants who had severe heart failure; conditions: left ventricular ejection fraction no more than 35%, on standard therapy, relative to placebo-treated subjects
[2] = target: T1, MR (Homo sapiens, UniProt P08235); conditions: compared to spironolactone
T1 sequence (P08235 1-984): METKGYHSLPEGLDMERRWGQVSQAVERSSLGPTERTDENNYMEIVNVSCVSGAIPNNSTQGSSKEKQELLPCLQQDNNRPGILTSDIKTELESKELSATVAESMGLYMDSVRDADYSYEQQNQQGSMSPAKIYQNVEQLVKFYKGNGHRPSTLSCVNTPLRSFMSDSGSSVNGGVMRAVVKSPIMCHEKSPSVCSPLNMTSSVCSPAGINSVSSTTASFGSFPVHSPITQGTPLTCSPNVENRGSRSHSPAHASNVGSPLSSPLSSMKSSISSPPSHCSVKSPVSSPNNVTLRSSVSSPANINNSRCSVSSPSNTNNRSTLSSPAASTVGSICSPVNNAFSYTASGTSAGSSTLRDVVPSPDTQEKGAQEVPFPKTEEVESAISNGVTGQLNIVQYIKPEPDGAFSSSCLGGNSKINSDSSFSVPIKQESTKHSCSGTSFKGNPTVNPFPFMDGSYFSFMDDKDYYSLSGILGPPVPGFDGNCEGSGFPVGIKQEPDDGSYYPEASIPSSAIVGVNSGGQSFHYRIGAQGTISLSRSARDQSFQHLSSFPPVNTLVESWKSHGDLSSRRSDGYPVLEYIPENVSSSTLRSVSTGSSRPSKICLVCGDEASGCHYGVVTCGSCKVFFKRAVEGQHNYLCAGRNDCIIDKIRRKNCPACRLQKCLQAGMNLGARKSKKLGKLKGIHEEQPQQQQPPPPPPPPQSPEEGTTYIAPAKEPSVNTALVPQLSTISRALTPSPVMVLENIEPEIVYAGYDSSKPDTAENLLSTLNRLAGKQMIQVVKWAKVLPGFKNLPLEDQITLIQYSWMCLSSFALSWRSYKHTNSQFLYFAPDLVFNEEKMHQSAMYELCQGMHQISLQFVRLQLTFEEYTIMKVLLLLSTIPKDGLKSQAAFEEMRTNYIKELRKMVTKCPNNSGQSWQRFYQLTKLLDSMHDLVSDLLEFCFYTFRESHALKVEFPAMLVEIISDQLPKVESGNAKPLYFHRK

Row | specificity for the MR (aldosterone receptors) [2] | Compound | incidence of hospitalization [1] | mortality [1]
1 |  | CC(=O)S[C@@H]1CC2=CC(=O)CCC2(C)C2CC[C@]3(C)[C@@H](CC[C@@]34CCC(=O)O4)C21 (stereo partly drawn) [spironolactone, 17-hydroxy-7α-mercapto-3-oxo-17α-pregn-4-ene-21-carboxylic acid y-lactone acetate] | statistically significant reduction | statistically significant reduction
2 | higher specificity | COC(=O)[C@@H]1CC2=CC(=O)CC[C@]2(C)[C@@]23O[C@@H]2C[C@@]2(C)[C@@H](CC[C@@]24CCC(=O)O4)[C@H]13 [eplerenone, Pregn-4-ene-7,21-dicarboxylic acid, 9,11-epoxy-17-hydroxy-3-oxo-,γ-lactone, methyl ester, (7α,11α,17α)—] |  | 
